Assay results reported in ChEMBL document CHEMBL1909046, “DrugMatrix in vitro pharmacology data”.

Key:
[1] = molecular target: T1, Alpha-1A adrenergic receptor (Rattus norvegicus, UniProt P43140); test: DRUGMATRIX: Alpha-1A adrenergic receptor radioligand binding (ligand: prazosin); assay type: cell membranes, Wistar, Submaxillary gland, Membrane; details: Not Active = under 50% inhibition at 10 µM
T1 sequence (P43140 whole entry): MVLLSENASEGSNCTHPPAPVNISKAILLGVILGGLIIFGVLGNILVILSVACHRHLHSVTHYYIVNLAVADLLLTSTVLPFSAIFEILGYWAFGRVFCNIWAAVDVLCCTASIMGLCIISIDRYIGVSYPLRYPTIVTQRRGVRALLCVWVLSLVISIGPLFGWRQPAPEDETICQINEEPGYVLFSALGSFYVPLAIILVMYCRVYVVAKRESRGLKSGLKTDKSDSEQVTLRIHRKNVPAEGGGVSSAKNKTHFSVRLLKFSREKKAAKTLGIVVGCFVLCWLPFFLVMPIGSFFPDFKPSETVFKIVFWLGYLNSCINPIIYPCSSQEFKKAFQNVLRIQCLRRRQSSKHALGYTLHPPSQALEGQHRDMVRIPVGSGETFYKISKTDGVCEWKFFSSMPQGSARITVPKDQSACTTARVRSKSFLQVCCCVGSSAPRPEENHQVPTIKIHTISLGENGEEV

[2] = molecular target: T2, Vasoactive intestinal polypeptide receptor 1 (Homo sapiens, UniProt P32241); assay type: cell membranes, Membrane; details: ht-29; further: in other assays of this panel Not Active means under 50% inhibition at 10 µM
T2 sequence (P32241 whole entry): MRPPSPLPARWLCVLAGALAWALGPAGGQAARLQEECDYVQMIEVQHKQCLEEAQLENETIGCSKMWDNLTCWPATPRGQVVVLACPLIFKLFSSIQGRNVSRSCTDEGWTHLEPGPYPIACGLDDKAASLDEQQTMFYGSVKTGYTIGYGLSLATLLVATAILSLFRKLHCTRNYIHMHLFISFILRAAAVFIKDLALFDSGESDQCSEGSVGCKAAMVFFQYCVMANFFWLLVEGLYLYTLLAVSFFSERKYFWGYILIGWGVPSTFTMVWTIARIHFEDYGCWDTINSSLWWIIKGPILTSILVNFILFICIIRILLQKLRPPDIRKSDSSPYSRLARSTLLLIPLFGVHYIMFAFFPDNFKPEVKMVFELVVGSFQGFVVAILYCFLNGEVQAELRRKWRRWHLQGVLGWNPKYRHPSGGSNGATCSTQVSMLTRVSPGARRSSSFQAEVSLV

[3] = molecular target: Prostaglandin G/H synthase 1 (Homo sapiens, UniProt P23219); test: biochemical; assay type: tissue-based, Platelet; details: platelet;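 further: inhibition of COX-1 enzyme activity, with arachidonic acid supplied as substrate; in other assays of this panel Not Active means under 50% inhibition at 10 µM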
Sequence of Prostaglandin G/H synthase 1 (P23219 whole entry): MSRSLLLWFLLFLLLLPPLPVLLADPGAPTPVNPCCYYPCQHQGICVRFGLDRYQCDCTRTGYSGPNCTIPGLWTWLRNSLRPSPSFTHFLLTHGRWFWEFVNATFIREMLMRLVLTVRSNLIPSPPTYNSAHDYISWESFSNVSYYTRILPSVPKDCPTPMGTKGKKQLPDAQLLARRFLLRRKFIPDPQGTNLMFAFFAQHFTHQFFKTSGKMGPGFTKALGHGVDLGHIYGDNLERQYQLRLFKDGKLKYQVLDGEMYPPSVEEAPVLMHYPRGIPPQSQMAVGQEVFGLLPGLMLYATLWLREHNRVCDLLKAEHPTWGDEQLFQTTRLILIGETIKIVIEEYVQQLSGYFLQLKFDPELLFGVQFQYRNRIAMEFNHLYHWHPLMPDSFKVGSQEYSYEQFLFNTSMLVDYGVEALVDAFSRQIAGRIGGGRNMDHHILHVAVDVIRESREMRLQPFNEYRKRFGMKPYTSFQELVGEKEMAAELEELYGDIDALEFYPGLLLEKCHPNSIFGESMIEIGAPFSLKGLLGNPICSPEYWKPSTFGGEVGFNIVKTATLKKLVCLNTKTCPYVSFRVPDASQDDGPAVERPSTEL

Nitric oxide synthase 1 = Nitric oxide synthase 1 (Rattus norvegicus, UniProt P29476); assay type: tissue-based, Cerebellum; further: in other assays of this panel Not Active means under 50% inhibition at 10 µM
Sequence of Nitric oxide synthase 1 (P29476 whole entry): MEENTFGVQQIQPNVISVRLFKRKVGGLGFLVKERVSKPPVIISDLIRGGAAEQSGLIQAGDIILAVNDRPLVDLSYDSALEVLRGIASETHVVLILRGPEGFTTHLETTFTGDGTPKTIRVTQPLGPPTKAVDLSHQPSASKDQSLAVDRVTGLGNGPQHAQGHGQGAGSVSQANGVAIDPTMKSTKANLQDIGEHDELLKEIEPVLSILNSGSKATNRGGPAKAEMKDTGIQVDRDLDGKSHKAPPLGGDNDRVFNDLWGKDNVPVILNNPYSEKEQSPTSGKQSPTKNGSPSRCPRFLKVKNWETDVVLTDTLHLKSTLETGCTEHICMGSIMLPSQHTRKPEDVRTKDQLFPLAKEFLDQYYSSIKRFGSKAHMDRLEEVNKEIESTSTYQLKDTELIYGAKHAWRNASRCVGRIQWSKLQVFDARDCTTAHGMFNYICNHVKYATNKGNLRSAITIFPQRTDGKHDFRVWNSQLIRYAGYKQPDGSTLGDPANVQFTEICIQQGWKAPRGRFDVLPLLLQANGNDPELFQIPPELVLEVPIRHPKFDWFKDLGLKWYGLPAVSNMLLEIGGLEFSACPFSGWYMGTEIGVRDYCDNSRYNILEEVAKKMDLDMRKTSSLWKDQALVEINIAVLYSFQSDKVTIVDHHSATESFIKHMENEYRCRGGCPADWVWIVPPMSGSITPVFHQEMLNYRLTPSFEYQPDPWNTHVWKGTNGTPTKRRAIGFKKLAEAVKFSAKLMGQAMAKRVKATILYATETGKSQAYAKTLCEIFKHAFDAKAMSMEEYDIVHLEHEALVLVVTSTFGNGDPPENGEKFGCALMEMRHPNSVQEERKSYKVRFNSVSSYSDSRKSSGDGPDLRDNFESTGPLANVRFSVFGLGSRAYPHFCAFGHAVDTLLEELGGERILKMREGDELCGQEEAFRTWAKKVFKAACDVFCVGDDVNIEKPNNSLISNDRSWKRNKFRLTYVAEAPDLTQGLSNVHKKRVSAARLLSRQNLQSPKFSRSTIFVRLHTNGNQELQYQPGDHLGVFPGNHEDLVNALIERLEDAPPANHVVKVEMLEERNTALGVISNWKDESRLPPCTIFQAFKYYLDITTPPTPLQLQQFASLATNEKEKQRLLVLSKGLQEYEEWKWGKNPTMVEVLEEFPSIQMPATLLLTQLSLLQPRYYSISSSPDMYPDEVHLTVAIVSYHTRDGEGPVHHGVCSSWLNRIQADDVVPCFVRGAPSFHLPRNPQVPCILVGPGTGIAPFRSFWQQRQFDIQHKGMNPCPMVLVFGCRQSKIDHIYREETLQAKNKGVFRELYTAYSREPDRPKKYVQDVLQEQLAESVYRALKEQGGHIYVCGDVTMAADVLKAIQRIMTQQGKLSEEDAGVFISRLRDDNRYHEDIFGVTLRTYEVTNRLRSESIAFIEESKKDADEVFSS

Caspase-1 = molecular target: T3, Caspase-1 (Homo sapiens, UniProt P29466); parameters: species or system Escherichia coli;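 further: Caspase-1 enzyme inhibition assay with a peptide substrate; in other assays of this panel Not Active means under 50% inhibition at 10 µM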
T3 sequence (P29466 whole entry): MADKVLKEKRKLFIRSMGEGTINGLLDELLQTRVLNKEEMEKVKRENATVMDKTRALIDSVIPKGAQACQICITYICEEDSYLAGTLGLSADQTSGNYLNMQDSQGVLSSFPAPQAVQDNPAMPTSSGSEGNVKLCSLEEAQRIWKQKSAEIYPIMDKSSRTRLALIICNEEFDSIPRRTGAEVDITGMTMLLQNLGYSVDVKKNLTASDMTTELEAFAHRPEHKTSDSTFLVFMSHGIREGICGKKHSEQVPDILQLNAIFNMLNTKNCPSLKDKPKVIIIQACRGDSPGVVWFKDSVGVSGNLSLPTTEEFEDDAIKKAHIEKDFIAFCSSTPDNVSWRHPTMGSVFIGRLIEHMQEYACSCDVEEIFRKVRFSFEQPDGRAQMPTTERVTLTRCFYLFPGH

Adenosine receptor A2a = Adenosine receptor A2a (Homo sapiens, UniProt P29274); test: DRUGMATRIX: Adenosine A2A radioligand binding (ligand: […]); assay type: cell membranes, HEK293, Membrane; details: hek293; Not Active = under 50% inhibition at 10 µM
Sequence of Adenosine receptor A2a (P29274 whole entry): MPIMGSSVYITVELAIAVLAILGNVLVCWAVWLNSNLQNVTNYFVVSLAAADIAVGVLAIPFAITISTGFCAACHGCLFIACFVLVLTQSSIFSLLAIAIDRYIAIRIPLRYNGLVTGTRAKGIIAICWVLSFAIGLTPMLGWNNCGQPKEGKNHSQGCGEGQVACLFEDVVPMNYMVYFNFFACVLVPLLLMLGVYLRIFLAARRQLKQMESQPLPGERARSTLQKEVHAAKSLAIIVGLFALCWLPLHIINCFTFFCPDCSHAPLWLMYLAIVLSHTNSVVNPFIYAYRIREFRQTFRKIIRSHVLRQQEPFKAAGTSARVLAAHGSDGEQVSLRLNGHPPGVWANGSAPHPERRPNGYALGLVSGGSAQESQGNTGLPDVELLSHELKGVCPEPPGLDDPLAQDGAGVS

Cytochrome P450 2E1 = Cytochrome P450 2E1 (Homo sapiens, UniProt P05181); details: bti-tn-5b1-4; further: in other assays of this panel Not Active means under 50% inhibition at 10 µM
Sequence of Cytochrome P450 2E1 (P05181 whole entry): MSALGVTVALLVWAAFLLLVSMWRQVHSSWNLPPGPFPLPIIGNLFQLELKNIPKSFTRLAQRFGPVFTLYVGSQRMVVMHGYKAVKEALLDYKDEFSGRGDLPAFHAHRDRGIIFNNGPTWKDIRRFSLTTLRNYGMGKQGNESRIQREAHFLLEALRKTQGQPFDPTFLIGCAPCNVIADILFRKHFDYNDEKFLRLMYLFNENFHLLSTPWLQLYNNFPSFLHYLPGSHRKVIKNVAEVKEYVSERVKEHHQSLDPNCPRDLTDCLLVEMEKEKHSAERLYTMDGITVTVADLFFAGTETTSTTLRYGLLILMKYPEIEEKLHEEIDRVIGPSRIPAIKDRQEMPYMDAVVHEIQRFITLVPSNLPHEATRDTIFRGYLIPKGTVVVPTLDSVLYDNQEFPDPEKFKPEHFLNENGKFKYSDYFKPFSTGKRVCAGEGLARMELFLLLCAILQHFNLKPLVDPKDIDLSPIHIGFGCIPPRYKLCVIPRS

Compound	IC50 ([1]; read-out: IC50) [nM]	Ki ([1]; read-out: Ki) [nM]	IC50 [2]	IC50 [3]	IC50 (Nitric oxide synthase 1)	IC50 (Caspase-1)	IC50 (Adenosine receptor A2a)	IC50 (Cytochrome P450 2E1)	Ki (Cytochrome P450 2E1)	IC50 [1]	Ki [1]	Ki [2]	Ki [3]	Ki (Nitric oxide synthase 1)	Ki (Caspase-1)	Ki (Adenosine receptor A2a)
CC(C)C[C@H]1C(=O)N2CCC[C@H]2[C@]2(O)O[C@](NC(=O)[C@@H]3C=C4c5cccc6[nH]cc(c56)C[C@H]4N(C)C3)(C(C)C)C(=O)N12 [ERGOCRYPTINE]	11	4.28	Not Active	Not Active	Not Active	Not Active	Not Active	Not Active	Not Active							
Cc1cc(O)cc(C)c1Cl [CHLOROXYLENOL]			Not Active	Not Active	Not Active	Not Active	Not Active	Not Active	Not Active	Not Active						
CCOC(=O)c1ncn2c1CN(C)C(=O)c1cc(F)ccc1-2 [FLUMAZENIL]			Not Active	Not Active	Not Active	Not Active	Not Active	Not Active	Not Active	Not Active						
COBALTOUS CHLORIDE			Not Active	Not Active	Not Active	Not Active	Not Active	Not Active	Not Active	Not Active	Not Active	Not Active	Not Active	Not Active	Not Active	Not Active
COc1ccc2c(c1OC)C(=O)O[C@@H]2[C@H]1c2c(cc3c(c2OC)OCO3)CCN1C [NOSCAPINE]			Not Active	Not Active	Not Active	Not Active	Not Active	Not Active	Not Active	Not Active						
COLISTIN			Not Active	Not Active	Not Active	Not Active	Not Active	Not Active	Not Active	Not Active	Not Active	Not Active	Not Active	Not Active	Not Active	Not Active
CCN(C(C)=O)c1cccc(-c2ccnc3c(C#N)cnn23)c1 [ZALEPLON]			Not Active	Not Active	Not Active	Not Active	Not Active	Not Active	Not Active	Not Active						
CN1C(=O)CN=C(c2ccccc2)c2cc([N+](=O)[O-])ccc21 [NIMETAZEPAM]			Not Active	Not Active	Not Active	Not Active	Not Active	Not Active	Not Active	Not Active						
CC(C)c1c(C(=O)Nc2ccccc2)c(-c2ccccc2)c(-c2ccc(F)cc2)n1CC[C@@H](O)C[C@@H](O)CC(=O)O [ATORVASTATIN]			Not Active	Not Active	Not Active	Not Active	Not Active	Not Active	Not Active	Not Active						
CN(C)CCC=C1c2ccccc2CCc2ccccc21 [AMITRIPTYLINE]	14	5.6	Not Active	Not Active	Not Active	Not Active	Not Active	Not Active	Not Active							
C[C@]12CC[C@H]3[C@@H](CCC4=CC(=O)CC[C@@H]43)[C@@H]1CC[C@@H]2O [NANDROLONE]			Not Active	Not Active	Not Active	Not Active	Not Active	Not Active	Not Active	Not Active						
